We go through 22 molecules from patent publication US8883801B2, “Substituted pyrazolo[1,5-a]pyrimidines as mTOR inhibitors” (Merck Sharp & Dohme Corp., priority 2010, dated 2014).

Read-outs that look alike come from different tables or passages of the source.

One assay addresses human mTOR enzyme (Homo sapiens, UniProt P42345). Put plainly: HTRF mTOR enzyme (kinase) assay. The assay is classed as biochemical. The following applies: 5 μM ATP, 0.2 μM GST-S6K, read-out: hMTOR IC50.
Assay [1] concerns mTORC1 activity: phosphorylated 4E-BP1 Thr37/46 (p4E-BP1 Thr37/46) in PC3 cells. Briefly: mTOR target engagement assay, immunofluorescent cell-based, mTORC1 readout. The following applies: Homo sapiens, PC-3, 1.5 h, 90 min treatment, read-out: P4EBP1 IC50. The method, boiled down:
(§1)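 Read-out is immunofluorescence intensity, normalized to DMSO-only wells and fitted to a sigmoidal Hill equation for IC50. The mTORC1 arm probes phospho-4E-BP1 Thr37/46 and the mTORC2 arm phospho-AKT Ser473.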

In assay [2] the test system is mTORC2 activity: phosphorylated AKT Ser473 (pAKT S473) in PC3 cells. Briefly: mTOR target engagement assay, immunofluorescent cell-based, mTORC2 readout. The following applies: Homo sapiens, PC-3, 1.5 h, 90 min treatment. An outline of the steps:
as §1

Chain of human mTOR enzyme (P42345 1360-2549 limits assumed): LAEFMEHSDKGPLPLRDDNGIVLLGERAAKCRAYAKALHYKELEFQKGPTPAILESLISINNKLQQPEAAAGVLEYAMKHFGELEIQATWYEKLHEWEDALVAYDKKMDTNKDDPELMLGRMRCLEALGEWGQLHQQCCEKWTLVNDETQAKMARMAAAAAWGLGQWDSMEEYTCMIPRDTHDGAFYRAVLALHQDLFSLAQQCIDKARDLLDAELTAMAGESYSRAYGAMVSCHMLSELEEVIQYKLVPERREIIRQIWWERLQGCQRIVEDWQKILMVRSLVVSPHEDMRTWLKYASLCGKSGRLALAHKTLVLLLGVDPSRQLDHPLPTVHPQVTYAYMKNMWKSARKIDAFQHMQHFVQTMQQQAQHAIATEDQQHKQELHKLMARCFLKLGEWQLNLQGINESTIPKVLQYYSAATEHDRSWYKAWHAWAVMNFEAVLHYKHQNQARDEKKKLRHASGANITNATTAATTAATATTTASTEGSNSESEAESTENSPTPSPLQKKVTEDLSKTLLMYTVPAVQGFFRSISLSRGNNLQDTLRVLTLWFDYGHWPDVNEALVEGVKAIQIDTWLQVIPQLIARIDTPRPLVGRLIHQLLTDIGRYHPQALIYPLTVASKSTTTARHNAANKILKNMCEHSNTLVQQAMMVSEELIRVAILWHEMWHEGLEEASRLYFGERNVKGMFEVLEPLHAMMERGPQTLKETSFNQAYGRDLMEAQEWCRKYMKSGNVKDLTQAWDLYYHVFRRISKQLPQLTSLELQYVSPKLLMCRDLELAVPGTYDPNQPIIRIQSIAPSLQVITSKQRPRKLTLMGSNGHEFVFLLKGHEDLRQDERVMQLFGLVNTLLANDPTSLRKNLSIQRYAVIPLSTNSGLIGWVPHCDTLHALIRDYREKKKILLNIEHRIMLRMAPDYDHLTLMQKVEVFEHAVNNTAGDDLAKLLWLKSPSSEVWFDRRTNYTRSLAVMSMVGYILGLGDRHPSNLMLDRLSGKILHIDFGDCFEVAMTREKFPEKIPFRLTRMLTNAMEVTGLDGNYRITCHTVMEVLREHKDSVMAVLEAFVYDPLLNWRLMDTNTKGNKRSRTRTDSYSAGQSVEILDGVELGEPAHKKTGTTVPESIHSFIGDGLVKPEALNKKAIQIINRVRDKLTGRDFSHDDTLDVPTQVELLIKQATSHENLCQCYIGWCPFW

For the molecule `COCCO[C@]1(C(=O)N(C)C)CC[C@@H](c2nc3c(-c4cnn(-c5ccccc5)c4)cnn3c(N)c2S(C)(=O)=O)CC1` [Compound 91, (1R,4R)-4-(7-amino-6-(methylsulfonyl)-3-(1-phenyl-1H-pyrazol-4-yl)pyrazolo[1,5-a]pyrimidin-5-yl)-1-(2-methoxyethoxy)-N,N-dimethylcyclohexane-carboxamide], the IC50 lay within 1 to 100 nM at human mTOR enzyme (rated class), 1000 to 2000 nM in assay [1] (rated class) and 100 to 1000 nM in assay [2] (rated class).

For `COCCO[C@]1(C(=O)NCCO)CC[C@@H](c2nc3c(-c4cnn(-c5ccccc5)c4)cnn3c(N)c2S(C)(=O)=O)CC1` [Compound 92, (1R,4R)-4-(7-amino-6-(methylsulfonyl)-3-(1-phenyl-1H-pyrazol-4-yl)pyrazolo[1,5-a]pyrimidin-5-yl)-N-(2-hydroxyethyl)-1-(2-methoxyethoxy)-cyclohexane-carboxamide], the IC50 was 1 to 100 nM at human mTOR enzyme (rated class), 100 to 1000 nM in assay [1] (rated class) and 1 to 100 nM in assay [2] (rated class).

In the case of `COCCNC(=O)[C@]1(OCCOC)CC[C@H](c2nc3c(-c4cnn(-c5ccccc5)c4)cnn3c(N)c2S(C)(=O)=O)CC1` [Compound 93, (1R,4R)-4-(7-amino-6-(methylsulfonyl)-3-(1-phenyl-1H-pyrazol-4-yl)pyrazolo[1,5-a]pyrimidin-5-yl)-1-(2-methoxyethoxy)-N-(2-methoxyethyl)-cyclohexane-carboxamide], the IC50 at human mTOR enzyme (rated class) was in the range of 1 to 100 nM; in assay [1] (rated class), 1000 to 2000 nM; in assay [2] (rated class) it was 100 to 1000 nM.

Take `COCCO[C@]1(C(=O)n2ccc(=O)[nH]2)CC[C@@H](c2nc3c(-c4cnn(-c5ccccc5)c4)cnn3c(N)c2S(C)(=O)=O)CC1` [Compound 94, 1-((1R,4R)-4-(7-amino-6-(methylsulfonyl)-3-(1-phenyl-1H-pyrazol-4-yl)pyrazolo[1,5-a]pyrimidin-5-yl)-1-(2-methoxyethoxy)-cyclohexanecarbonyl)-1H-pyrazol-3(2H)-one]: the IC50 at human mTOR enzyme (rated class) was 1 to 100 nM; in assay [1] (rated class), 100 to 1000 nM; in assay [2] (rated class) it was 1 to 100 nM.

For `COCCO[C@]1(C(=O)N2CCC(=O)N2)CC[C@@H](c2nc3c(-c4cnn(-c5ccccc5)c4)cnn3c(N)c2S(C)(=O)=O)CC1` [Compound 95, 1-((1R,4R)-4-(7-amino-6-(methylsulfonyl)-3-(1-phenyl-1H-pyrazol-4-yl)pyrazolo[1,5-a]pyrimidin-5-yl)-1-(2-methoxyethoxy)cyclohexanecarbonyl)-pyrazolidin-3-one], the IC50 on human mTOR enzyme (rated class) was in the range of 1 to 100 nM; in assay [1] (rated class), 100 to 1000 nM; in assay [2] (rated class), 100 to 1000 nM.

On to `COCCO[C@]1(C(=O)NN2CCOCC2)CC[C@@H](c2nc3c(-c4cnn(-c5ccccc5)c4)cnn3c(N)c2S(C)(=O)=O)CC1` [Compound 96, (1R,4R)-4-(7-amino-6-(methylsulfonyl)-3-(1-phenyl-1H-pyrazol-4-yl)pyrazolo[1,5-a]pyrimidin-5-yl)-1-(2-methoxyethoxy)-N-morpholinocyclohexane-carboxamide], for which the IC50 at human mTOR enzyme (rated class) was 1 to 100 nM; in assay [1] (rated class) it was 1000 to 2000 nM; in assay [2] (rated class), 100 to 1000 nM.

As for `COCCO[C@]1(C(=O)NOCCO)CC[C@@H](c2nc3c(-c4cnn(-c5ccccc5)c4)cnn3c(N)c2S(C)(=O)=O)CC1` [Compound 100], the IC50 (on human mTOR enzyme (rated class); in assay [1] (rated class); in assay [2] (rated class)) was 1 to 100 nM in each case.

Take `COCCO[C@]1(C(=O)NO)CC[C@@H](c2nc3c(-c4ccc(-c5ccccc5)nc4)cnn3c(N)c2C(C)=O)CC1` [Compound 102, (1R,4R)-4-(6-acetyl-7-amino-3-(6-phenylpyridin-3-yl)pyrazolo[1,5-a]pyrimidin-5-yl)-N-hydroxy-1-(2-methoxyethoxy)-cyclohexane-carboxamide]: the results for the IC50 (on human mTOR enzyme (rated class); in assay [1] (rated class); in assay [2] (rated class)) were 1 to 100 nM, 100 to 1000 nM and 100 to 1000 nM, respectively.

Take `COCCO[C@]1(C(=O)NOC)CC[C@@H](c2nc3c(-c4ccc(-c5ccccc5)nc4)cnn3c(N)c2C(C)=O)CC1` [Compound 103, (1R,4R)-4-(6-acetyl-7-amino-3-(6-phenylpyridin-3-yl)pyrazolo[1,5-a]pyrimidin-5-yl)-N-methoxy-1-(2-methoxyethoxy)-cyclohexane-carboxamide]: the IC50 on human mTOR enzyme (rated class) was 1 to 100 nM; in assay [1] (rated class) it was 100 to 1000 nM; in assay [2] (rated class), 100 to 1000 nM.

For the molecule `COCCO[C@]1(C(=O)NO)CC[C@@H](c2nc3c(-c4ccc(-c5ccccc5)nc4)cnn3c(N)c2S(C)(=O)=O)CC1` [Compound 104, (1R,4R)-4-(7-amino-6-(methylsulfonyl)-3-(6-phenylpyridin-3-yl)pyrazolo[1,5-a]pyrimidin-5-yl)-N-hydroxy-1-(2-methoxyethoxy)-cyclohexane-carboxamide], the IC50 (on human mTOR enzyme (rated class); in assay [1] (rated class); in assay [2] (rated class)) was 1 to 100 nM throughout.

For `COCCO[C@]1(C(=O)NOC)CC[C@@H](c2nc3c(-c4ccc(-c5ccccc5)nc4)cnn3c(N)c2S(C)(=O)=O)CC1` [Compound 105, (1R,4R)-4-(7-amino-6-(methylsulfonyl)-3-(6-phenylpyridin-3-yl)pyrazolo[1,5-a]pyrimidin-5-yl)-N-methoxy-1-(2-methoxyethoxy)-cyclohexane-carboxamide], the IC50 at human mTOR enzyme (rated class) was 1 to 100 nM; in assay [1] (rated class), 100 to 1000 nM; in assay [2] (rated class), 1 to 100 nM.

`COCCO[C@]1(c2nnc(N)o2)CC[C@@H](c2nc3c(-c4cnn(-c5ccccc5)c4)cnn3c(N)c2S(C)(=O)=O)CC1` [Compound 108, 5-((1R,4R)-4-(7-amino-6-(methylsulfonyl)-3-(1-phenyl-1H-pyrazol-4-yl)pyrazolo[1,5-a]pyrimidin-5-yl)-1-(2-methoxyethoxy)cyclohexyl)-1,3,4-oxadiazol-2-amine]: the figures for the IC50 (on human mTOR enzyme (rated class); in assay [1] (rated class); in assay [2] (rated class)) were 1 to 100 nM, 100 to 1000 nM and 1 to 100 nM, respectively.

As for `COCCO[C@]1(c2nnc(C)o2)CC[C@@H](c2nc3c(-c4cnn(-c5ccccc5)c4)cnn3c(N)c2S(C)(=O)=O)CC1` [Compound 109], the half-inhibitory concentration (IC50) on human mTOR enzyme (rated class) lay in the range of 1 to 100 nM; in assay [1] (rated class), 2000 to 5000 nM; in assay [2] (rated class), 100 to 1000 nM.

Turning to `COCCO[C@]1(C(N)=O)CC[C@@H](c2nc3c(-c4cnn(-c5ccccc5)c4)cnn3c(N)c2S(C)(=O)=O)CC1` [Compound 110, (1R,4R)-4-(7-amino-6-(methylsulfonyl)-3-(1-phenyl-1H-pyrazol-4-yl)pyrazolo[1,5-a]pyrimidin-5-yl)-1-(2-methoxyethoxy)cyclohexanecarboxamide], the IC50 (on human mTOR enzyme (rated class); in assay [1] (rated class); in assay [2] (rated class)) was 1 to 100 nM in each case.

As for `COCCO[C@]1(C(N)=O)CC[C@@H](c2nc3c(-c4ccc(-c5ccccc5)nc4)cnn3c(N)c2S(C)(=O)=O)CC1` [Compound 111], the IC50 at human mTOR enzyme (numeric value) is 1 nM; in assay [1] (numeric value), 141 nM; in assay [2] (numeric value) it was 48 nM.

With `COCCO[C@]1(C(N)=O)CC[C@@H](c2nc3c(-c4ccc(-c5ncc[nH]5)nc4)cnn3c(N)c2C(C)=O)CC1` [Compound 112, (1R,4R)-4-(3-(6-(1H-imidazol-2-yl)pyridin-3-yl)-6-acetyl-7-aminopyrazolo[1,5-a]pyrimidin-5-yl)-1-(2-methoxyethoxy)cyclohexanecarboxamide], the half-inhibitory concentration (IC50) (at human mTOR enzyme (rated class); in assay [1] (rated class); in assay [2] (rated class)) was 1 to 100 nM in each case.

Take `COCCO[C@]1(C(N)=O)CC[C@H](c2nc3c(-c4ccc(-c5ncc[nH]5)nc4)cnn3c(N)c2C(C)=O)CC1` [Compound 113, (1S,4S)-4-(3-(6-(1H-imidazol-2-yl)pyridin-3-yl)-6-acetyl-7-aminopyrazolo[1,5-a]pyrimidin-5-yl)-1-(2-methoxyethoxy) cyclohexanecarboxamide]: the IC50 on human mTOR enzyme (rated class) was in the range of 1 to 100 nM; in assay [1] (rated class) it was 100 to 1000 nM; in assay [2] (rated class), 100 to 1000 nM.

Take `COCCO[C@]1(C(=O)NO)CC[C@H](c2nc3c(-c4ccc(-c5ncc[nH]5)nc4)cnn3c(N)c2C(C)=O)CC1` [Compound 114]: the IC50 on human mTOR enzyme (rated class) fell in the range of 1 to 100 nM; in assay [1] (rated class) it was 100 to 1000 nM; in assay [2] (rated class), 100 to 1000 nM.

Consider `COCCO[C@]1(C(=O)NO)CC[C@@H](c2nc3c(-c4ccc(-c5ncc[nH]5)nc4)cnn3c(N)c2C(C)=O)CC1` [Compound 115, (1R,4R)-(3-(6-(1H-imidazol-2-yl)pyridin-3-yl)-6-acetyl-7-aminopyrazolo[1,5-a]pyrimidin-5-yl)-N-hydroxy-1-(2-methoxyethoxy)cyclohexane carboxamide], for which the IC50 (on human mTOR enzyme (rated class); in assay [1] (rated class); in assay [2] (rated class)) was 1 to 100 nM throughout.

For the molecule `COCCO[C@]1(C(N)=O)CC[C@@H](c2nc3c(-c4ccc(-c5ncc[nH]5)nc4)cnn3c(N)c2S(C)(=O)=O)CC1` [Compound 116], the IC50 was 1 to 100 nM at human mTOR enzyme (rated class), 1 to 100 nM in assay [1] (rated class) and 100 to 1000 nM in assay [2] (rated class).

Turning to `COCCO[C@]1(C#N)CC[C@@H](c2nc3c(-c4cnn(-c5ccccc5)c4)cnn3c(N)c2S(C)(=O)=O)CC1` [Compound 117, (1R,4R)-4-(7-amino-6-(methylsulfonyl)-3-(1-phenyl-1H-pyrazol-4-yl)pyrazolo[1,5-a]pyrimidin-5-yl)-1-(2-methoxyethoxy)cyclohexanecarbonitrile], the IC50 lay within 1 to 100 nM at human mTOR enzyme (rated class), 1000 to 2000 nM in assay [1] (rated class) and 100 to 1000 nM in assay [2] (rated class).

Regarding `COCCO[C@]1(c2nnn[nH]2)CC[C@@H](c2nc3c(-c4cnn(-c5ccccc5)c4)cnn3c(N)c2S(C)(=O)=O)CC1` [Compound 118, 5-((1R,4R)-4-(2-methoxyethoxy)-4-(1H-tetrazol-5-yl)cyclohexyl)-6-(methylsulfonyl)-3-(1-phenyl-1H-pyrazol-4-yl)pyrazolo[1,5-a]pyrimidin-7-amine], the IC50 on human mTOR enzyme (rated class) was in the range of 1 to 100 nM; in assay [1] (rated class) it was 100 to 1000 nM; in assay [2] (rated class), 100 to 1000 nM.
